Biological target: T1, SIRT1 (Homo sapiens, UniProt Q96EB6)
T1 sequence (Q96EB6 1-747): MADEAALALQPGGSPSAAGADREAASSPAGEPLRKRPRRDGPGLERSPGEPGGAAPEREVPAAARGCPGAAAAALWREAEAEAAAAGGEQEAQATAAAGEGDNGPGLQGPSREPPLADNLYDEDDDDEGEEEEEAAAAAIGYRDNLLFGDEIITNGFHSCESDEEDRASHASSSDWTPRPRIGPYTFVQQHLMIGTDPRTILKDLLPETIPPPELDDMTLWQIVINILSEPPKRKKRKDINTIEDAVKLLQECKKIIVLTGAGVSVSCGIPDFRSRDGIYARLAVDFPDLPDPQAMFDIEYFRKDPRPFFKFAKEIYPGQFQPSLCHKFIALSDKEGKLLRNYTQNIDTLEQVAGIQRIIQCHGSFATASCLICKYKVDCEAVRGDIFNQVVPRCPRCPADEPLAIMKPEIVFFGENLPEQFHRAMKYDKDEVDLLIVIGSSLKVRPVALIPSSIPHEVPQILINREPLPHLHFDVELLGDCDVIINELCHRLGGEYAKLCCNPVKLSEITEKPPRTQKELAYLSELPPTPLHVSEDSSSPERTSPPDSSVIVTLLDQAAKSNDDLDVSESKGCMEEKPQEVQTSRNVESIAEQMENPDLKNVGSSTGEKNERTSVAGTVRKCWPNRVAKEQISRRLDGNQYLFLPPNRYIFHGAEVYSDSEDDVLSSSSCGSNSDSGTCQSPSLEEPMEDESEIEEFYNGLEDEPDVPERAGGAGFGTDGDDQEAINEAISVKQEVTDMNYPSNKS
Assay: Mass spectrometry based assay to identify modulators of SIRT1 activity (deacetylation of p53-based acetylated peptide substrate)
Type: biochemical
Conditions: 10 nM SIRT1, 0.5 μM peptide substrate, 120 μM βNAD+, 25 minutes at 25° C.; for EC1.5: SIRT1 activation
Procedure, shortened: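 Activation measured on His-tagged SIRT1 (10 nM, E. coli-expressed) deacetylating a 0.5 μM p53-derived acetyl-peptide with 120 μM βNAD^+ for 25 min at 25 °C, pH 8 Tris-acetate. After formic acid stop, mass spectrometry quantified acetylated versus deacetylated peptide, referenced to DMSO and nicotinamide controls. Reported as EC1.5 and maximum fold activation.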

FOLD ACT. (percent maximum fold activation) | EC1.5 | Compound
A (Fold activation≧300%) | A (EC1.5≧250 nM and ≦1 uM) | COCCN1CCN(c2cc(C(=O)Nc3ccccc3-c3nc4cccnc4s3)nc(Cl)n2)CC1 [Compound 4]
A (Fold activation≧300%) | A′ (EC1.5<250 nM) | O=C(Nc1ccccc1-c1nc2cccnc2s1)c1cc(NC2CCCNC2)nc(-c2ccccc2)n1 (stereo not shown) [Compound 72]
A (Fold activation≧300%) | A′ (EC1.5<250 nM) | CCN(CC)CCNc1cc(C(=O)Nc2ccccc2-c2nc3cccnc3s2)nc(-c2ccccc2)n1 [Compound 41]
A (Fold activation≧300%) | B (EC1.5>1 and ≦10 uM) | Cc1nc(NCCN(C)C)cc(C(=O)Nc2ccccc2-c2nc3cccnc3s2)n1 [Compound 28]
A (Fold activation≧300%) | A′ (EC1.5<250 nM) | NCCOc1cc(C(=O)Nc2ccccc2-c2nc3cccnc3s2)nc(-c2ccccc2)n1 [Compound 152]
A (Fold activation≧300%) | A′ (EC1.5<250 nM) | O=C(Nc1ccccc1-c1nc2cccnc2s1)c1cc(NCCN2CCNCC2)nc(-c2ccccc2)n1 [Compound 48]
A (Fold activation≧300%) | A′ (EC1.5<250 nM) | CN1CCC(Nc2cc(C(=O)Nc3ccccc3-c3nc4cccnc4s3)nc(-c3ccccc3)n2)CC1 [Compound 99]
A (Fold activation≧300%) | A′ (EC1.5<250 nM) | NCCCCCNc1cc(C(=O)Nc2ccccc2-c2nc3cccnc3s2)nc(-c2ccccc2)n1 [Compound 86]
B (Fold Activation≧150% and <300%) | A (EC1.5≧250 nM and ≦1 uM) | O=C(Nc1ccccc1-c1nc2cccnc2s1)c1cc(NC2CCN(C(=O)c3ccccc3)CC2)nc(-c2ccccc2)n1 [Compound 136]
A (Fold activation≧300%) | A′ (EC1.5<250 nM) | O=C(Nc1ccccc1-c1nc2cccnc2s1)c1cc(NC(CO)CO)nc(-c2ccccc2)n1 [Compound 69]
A (Fold activation≧300%) | A′ (EC1.5<250 nM) | O=C(Nc1ccccc1-c1nc2cccnc2s1)c1cc(OCCN2CCNCC2)cc(-c2ccccc2)n1 [Compound 14]
C (Fold Activation<150%) | C (EC1.5>10 uM) | O=C(Nc1ccccc1-c1nc2cccnc2s1)c1cc(NCc2ccccc2)nc(-c2ccccc2)n1 [Compound 54]
C (Fold Activation<150%) | C (EC1.5>10 uM) | CCOc1cc(C(=O)Nc2ccccc2-c2nc3cccnc3s2)nc(-c2ccccc2)n1 [Compound 18]
A (Fold activation≧300%) | A′ (EC1.5<250 nM) | CC(C)CN1CCC(Nc2cc(C(=O)Nc3ccccc3-c3nc4cccnc4s3)nc(-c3ccccc3)n2)CC1 [Compound 140]
A (Fold activation≧300%) | A′ (EC1.5<250 nM) | Cc1cccc(-c2nc(C(=O)Nc3ccccc3-c3nc4cccnc4s3)cc(N3CCN(C(C)C)CC3)n2)c1 [Compound 138]
A (Fold activation≧300%) | A′ (EC1.5<250 nM) | CC(C)C(=O)N1CCC(Nc2cc(C(=O)Nc3ccccc3-c3nc4cccnc4s3)nc(-c3ccccc3)n2)CC1 [Compound 117]
B (Fold Activation≧150% and <300%) | A (EC1.5≧250 nM and ≦1 uM) | Cc1cccc(-c2nc(C(=O)Nc3ccccc3-c3nc4cccnc4s3)cc(N3CCOCC3)n2)c1 [Compound 148]
C (Fold Activation<150%) | C (EC1.5>10 uM) | CC(C)CNc1cc(C(=O)Nc2ccccc2-c2nc3cccnc3s2)nc(-c2ccccc2)n1 [Compound 19]
A (Fold activation≧300%) | A′ (EC1.5<250 nM) | COCCN(C)c1cc(C(=O)Nc2ccccc2-c2nc3cccnc3s2)nc(-c2ccccc2)c1 [Compound 137]
C (Fold Activation<150%) | C (EC1.5>10 uM) | O=C(Nc1ccccc1-c1nc2cccnc2s1)c1cc(NC2CCCCC2)nc(-c2ccccc2)n1 [Compound 63]
A (Fold activation≧300%) | A′ (EC1.5<250 nM) | O=C(Nc1ccccc1-c1nc2ccncc2s1)c1cc(N2CCNCC2)nc(-c2ccccc2)n1 [Compound 23]

FOLD ACT. (percent maximum fold activation) | EC1.5 | Compound
A (Fold activation≧300%) | A′ (EC1.5<250 nM) | O=C(Nc1ccccc1-c1nc2cccnc2s1)c1cc(NC2CCNC2)nc(-c2ccccc2)n1 (stereo not shown) [Compound 104]
A (Fold activation≧300%) | A′ (EC1.5<250 nM) | COCCN(CCOC)c1cc(C(=O)Nc2ccccc2-c2nc3cccnc3s2)nc(-c2ccccc2)n1 [Compound 68]
A (Fold activation≧300%) | A′ (EC1.5<250 nM) | O=C(Nc1ccccc1-c1nc2cccnc2s1)c1cc(NCC2CCNCC2)nc(-c2ccccc2)n1 [Compound 82]
A (Fold activation≧300%) | B (EC1.5>1 and ≦10 uM) | O=C(Nc1ccccc1-c1nc2cccnc2s1)c1cc(NC(CO)C(=O)O)nc(-c2ccccc2)n1 (stereo not shown) [Compound 92]
A (Fold activation≧300%) | A′ (EC1.5<250 nM) | O=C(Nc1ccccc1-c1nc2cccnc2s1)c1cc(NC[C@@H](O)CO)nc(-c2ccccc2)n1 [Compound 106]
A (Fold activation≧300%) | A (EC1.5≧250 nM and ≦1 uM) | Cc1cccc(-c2nc(OC[C@@H](O)CO)cc(C(=O)Nc3ccccc3-c3nc4cccnc4s3)n2)c1 [Compound 142]
A (Fold activation≧300%) | A′ (EC1.5<250 nM) | O=C(Nc1ccccc1-c1nc2cccnc2s1)c1cc(NC(CO)CO)cc(-c2ccccc2)n1 [Compound 128]
A (Fold activation≧300%) | A (EC1.5≧250 nM and ≦1 uM) | NCCNc1cc(C(=O)Nc2ccccc2-c2nc3cccnc3s2)nc(-c2ccccc2)n1 [Compound 83]
A (Fold activation≧300%) | A′ (EC1.5<250 nM) | Cc1cccc(-c2nc(NC(CO)CO)cc(C(=O)Nc3ccccc3-c3nc4cccnc4s3)n2)c1 [Compound 134]
A (Fold activation≧300%) | A (EC1.5≧250 nM and ≦1 uM) | O=C(Nc1ccccc1-c1nc2cccnc2s1)c1cc(OC[C@@H](O)CO)cc(-c2ccccc2)n1 [Compound 127]
A (Fold activation≧300%) | A′ (EC1.5<250 nM) | Cl.O=C(Nc1ccccc1-c1nc2cccnc2s1)c1cc(NCCN2CCCCC2)nc(-c2ccccc2)n1 [Compound 67]
A (Fold activation≧300%) | A (EC1.5≧250 nM and ≦1 uM) | O=C(Nc1ccccc1-c1nc2cccnc2s1)c1cc(NCc2cccnc2)nc(-c2ccccc2)n1 [Compound 58]
A (Fold activation≧300%) | A′ (EC1.5<250 nM) | COCCN(CCOC)c1cc(C(=O)Nc2ccccc2-c2nc3cccnc3s2)nc(-c2cccc(C)c2)n1 [Compound 143]
A (Fold activation≧300%) | A′ (EC1.5<250 nM) | Cc1ccc(-c2nc(NCCN(C)C)cc(C(=O)Nc3ccccc3-c3nc4cccnc4s3)n2)cc1 [Compound 111]
A (Fold activation≧300%) | A′ (EC1.5<250 nM) | CCCN1CCC(Nc2cc(C(=O)Nc3ccccc3-c3nc4cccnc4s3)nc(-c3ccccc3)n2)CC1 [Compound 101]
C (Fold Activation<150%) | C (EC1.5>10 uM) | O=C(Nc1ccccc1-c1nc2cccnc2s1)c1cc(NC2CCCC2)nc(-c2ccccc2)n1 [Compound 20]
A (Fold activation≧300%) | A′ (EC1.5<250 nM) | O=C(Nc1ccccc1-c1nc2cccnc2s1)c1cc(NC[C@H](O)CO)nc(-c2ccccc2)n1 [Compound 105]
A (Fold activation≧300%) | A (EC1.5≧250 nM and ≦1 uM) | O=C(Nc1ccccc1-c1nc2cccnc2s1)c1cc(N2CCN3CCC[C@H]3C2)nc(-c2ccccc2)n1 [Compound 120]
A (Fold activation≧300%) | A (EC1.5≧250 nM and ≦1 uM) | CCN(CC)CCOc1cc(C(=O)Nc2ccccc2-c2nc3cccnc3s2)nc(-c2ccccc2)n1 [Compound 90]
A (Fold activation≧300%) | A′ (EC1.5<250 nM) | O=C(Nc1ccccc1-c1nc2cccnc2s1)c1cc(N2CCNCC2)cc(-c2ccccc2)n1 [Compound 119]
